pIC50: −log10 of the molar value. Where two headings read alike, the source gives them in different places.
What was measured:
[1] = molecular target: Beta Secretase enzyme (BACE) (Homo sapiens, UniProt P56817); experiment: In vitro enzymatic BACE FRET (fluorescence resonance energy transfer) assay; type: biochemical; conditions: for IC50: IC50's in uM;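 on all read-outs here: fluorescence read after 1 h with 50 nM quenched peptide substrate spanning the BACE cleavage site, in pH 4.2 acetate buffer containing 10% DMSO and nonionic detergent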
[2] = Microsomal stability assay, rat liver microsomes;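 further: rat liver microsomes (0.25 mg/mL) with about 1 µM compound plus 1 mM NADPH, pH 7.4, 37 °C for 30 min, parent left measured by LC-MS/MS against 0 min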
[3] = system: Aβ40 in conditioned medium of cells stably expressing Amyloid Precursor Protein (APP); experiment: In vitro BACE cell-based assay (Aβ40 in conditioned medium, sandwich ELISA); conditions: Homo sapiens; for IC50: IC50's in uM;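 on all read-outs here: compounds added as a dilution series, secreted peptide quantified by europium time-resolved fluorescence readout, potency fitted from percent of control versus compound concentration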
[4] = Microsomal stability assay, human liver microsomes;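 further: pooled human liver microsomes at 0.25 mg/mL with 1 µM compound and NADPH at 37 °C, pH 7.4, for 30 min, unchanged parent quantified by LC-MS/MS against the 0 min sample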
[5] = molecular target: CYP2D6 (Homo sapiens, UniProt P10635); experiment: CYP2D6 inhibition assay (bufuralol, pooled human liver microsomes); conditions: for IC50: 2D6 IC50 (uM), CYP enzyme inhibition
[6] = BACE enzyme assay, read-out: BACE1 FRET assay
[7] = HEK293, cell-based assay, HEK cells, read-out: HEK cell assay
[8] = 2D6 IC50, CYP enzyme inhibition
[9] = read-out: BACE1 FRET assay (IC50)
[10] = HEK293, HEK cells, read-out: HEK cell assay (IC50)
[11] = HEK293, HEK cell-based assay, read-out: HEK cell assay

Chain of Beta Secretase enzyme (BACE) (P56817 46-501): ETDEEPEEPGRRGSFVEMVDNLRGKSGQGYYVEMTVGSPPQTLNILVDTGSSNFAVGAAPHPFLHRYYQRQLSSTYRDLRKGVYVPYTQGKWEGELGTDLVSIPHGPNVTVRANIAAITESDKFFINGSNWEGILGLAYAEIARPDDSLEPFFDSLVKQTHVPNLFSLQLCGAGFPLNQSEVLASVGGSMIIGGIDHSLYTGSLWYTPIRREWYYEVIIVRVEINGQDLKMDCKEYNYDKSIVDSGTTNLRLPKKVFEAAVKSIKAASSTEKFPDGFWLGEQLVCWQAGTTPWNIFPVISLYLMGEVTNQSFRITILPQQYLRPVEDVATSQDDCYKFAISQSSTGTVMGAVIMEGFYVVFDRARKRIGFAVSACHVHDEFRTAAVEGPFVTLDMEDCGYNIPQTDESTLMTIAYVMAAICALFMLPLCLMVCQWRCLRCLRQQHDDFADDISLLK
Chain of CYP2D6 (P10635 whole entry): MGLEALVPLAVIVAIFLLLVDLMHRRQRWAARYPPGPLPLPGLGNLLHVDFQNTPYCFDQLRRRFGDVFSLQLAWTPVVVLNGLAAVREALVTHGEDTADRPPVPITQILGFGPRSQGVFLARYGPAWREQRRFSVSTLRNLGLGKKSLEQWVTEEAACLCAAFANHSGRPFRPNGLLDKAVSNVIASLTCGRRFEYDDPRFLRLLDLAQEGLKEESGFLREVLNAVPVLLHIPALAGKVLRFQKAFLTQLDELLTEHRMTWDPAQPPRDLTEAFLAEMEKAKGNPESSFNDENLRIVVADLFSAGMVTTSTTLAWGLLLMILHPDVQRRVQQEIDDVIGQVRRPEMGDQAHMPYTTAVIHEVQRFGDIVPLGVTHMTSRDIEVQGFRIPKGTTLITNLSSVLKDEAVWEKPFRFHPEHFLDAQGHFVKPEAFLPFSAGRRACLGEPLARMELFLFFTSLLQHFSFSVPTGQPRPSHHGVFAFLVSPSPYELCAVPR

SMILES	IC50 [1, 6] [µM]	RLM ([2]; rat liver microsomal data) [µL/min/mg]	HLM ([4]; human liver microsomal data) [µL/min/mg]	pIC50 [1, 9]	RLM ([2]; rat liver microsomes) [µL/min/mg]	pIC50 [3, 10]	HLM ([4]; human liver microsomes) [µL/min/mg]	pIC50 ([5]; 2D6 IC50, CYP2D6 inhibition)	other results
C#Cc1cccc(C[C@H](NC(=O)COC)[C@H](O)CN[C@H]2C[C@@]3(CCOC3)Oc3ncc(CC(C)(C)C)cc32)c1 [compound 869, N-((1S,2R)-3-(((3S,4′S)-6′-(2,2-dimethylpropyl)-3′,4,4′,5-tetrahydrospiro[furan-3,2′-pyrano[2,3-b]pyridin]-4′-yl)amino)-1-(3-ethynylbenzyl)-2-hydroxypropyl)-2-methoxyacetamide]	0.006	55	21						IC50 [3, 7]: 0.01 µM; pIC50 [5, 8]: 5.02
COCC(=O)N[C@@H](Cc1ccccc1)[C@H](O)CN[C@H]1CC2(CCC2)Oc2c(-c3cncn3C)cc(CC(C)C)cc21 [compound 635]				7.13	420	8.00	44	5.39	
CC(=O)N[C@@H](Cc1cccc(F)c1)[C@H](O)CN[C@H]1CC2(CCC2)Oc2c(-c3ccncc3)cc(CC(C)(C)C)cc21 [compound 592]				8.00	73	8.40	14	5.77	
COCC(=O)N[C@@H](Cc1ccccc1)[C@H](O)CN[C@H]1CC2(CCC2)Oc2c(-c3ccncc3)cc(CC(C)C)cc21 [compound 603]				8.00	172	8.00	76	5.57	
CO[C@H](C)C(=O)N[C@@H](Cc1cc(F)cc(F)c1)[C@H](O)CN[C@H]1CC2(CCC2)Oc2c(-c3ccncc3)cc(CC(C)C)cc21 [compound 587]				7.92	73	8.22	29	5.68	
CC(=O)N[C@@H](Cc1cccc(F)c1)[C@H](O)CN[C@H]1CC2(CCC2)Oc2c1cc(Cl)cc2-n1ccnc1 [compound 594]				6.80	61	7.11	44	6.52	
CO[C@H](C)C(=O)N[C@@H](Cc1cc(F)cc(F)c1)[C@H](O)CN[C@H]1CC2(CCC2)Oc2c1cc(CC(C)(C)C)nc2-c1ccncc1 [compound 583]				7.82	80	7.52	14	5.92	
COCC(=O)N[C@@H](Cc1cccc(F)c1)[C@H](O)CN[C@H]1CC2(CCC2)Oc2c(-c3ccncc3)cc(CC(C)C)cc21 [compound 607]				8.00	72	8.15	65	5.77	
COCC(=O)N[C@@H](Cc1cc(F)cc(F)c1)[C@H](O)CN[C@H]1CC2(CCC2)Oc2c(-c3nccn3C)cc(CC(C)C)cc21 [compound 630]				7.68	220	8.52	37	5.40	
CO[C@H](C)C(=O)N[C@@H](Cc1ccc(F)cc1)[C@H](O)CN[C@H]1CC2(CCC2)Oc2c(-c3ccncc3)cc(CC(C)C)cc21 [compound 606]				7.39	85	7.59	51	5.70	
COCC(=O)N[C@@H](Cc1cc(F)cc(-c2nccs2)c1)[C@H](O)CN[C@]1(C)CC2(CCC2)Oc2ncc(CC(C)(C)C)cc21 [compound 867]	1.21	119	66						IC50 [3, 7]: 1.15 µM; pIC50 [5, 8]: 6.15
CC(C)(C)Cc1cnc2c(c1)[C@@H](NC[C@@H](O)[C@H](Cc1ccc(F)cc1)NC(=O)[C@@H]1CN(Cc3cncs3)CCO1)CC1(CCC1)O2 [compound 788]	0.016	157	267						IC50 [3, 11]: 0.013 µM; IC50 [5]: 0.6 µM
CCO[C@@H](C)C(=O)N[C@@H](Cc1ccc2c(c1)OCO2)[C@H](O)CN[C@H]1CC2(CCC2)Oc2ncc(CC(C)(C)C)cc21 [compound 888]	0.213	140	29						IC50 [3, 7]: 1.55 µM; pIC50 [5, 8]: 5.47
CO[C@H](C)C(=O)N[C@@H](Cc1cc(F)cc(F)c1)[C@H](O)CN[C@H]1CC2(CCC2)Oc2c1cc(CC(C)C)cc2-n1ccnc1 [compound 461]		126	28						pIC50 ([1]; Table 2, read-out: BACE1 FRET assay): 7.59; pIC50 ([3]; HEK293, Table 2, HEK cells, read-out: HEK cell assay): 7.55; pIC50 [5, 8]: 5.66
C#Cc1cccc(C[C@H](NC(=O)[C@@H](C)OC)[C@H](O)CN[C@H]2CC3(CCC3)Oc3ncc(CC(C)(C)C)cc32)c1F [compound 912]	0.013	60	35						IC50 [3, 7]: 1.19 µM; pIC50 [5, 8]: 5.20
COCC(=O)N[C@@H](Cc1cccc(C#N)c1)[C@H](O)CN[C@H]1CC2(CCC2)Oc2c(-c3ccncc3)cc(CC(C)C)cc21 [compound 619]				7.92	85	8.22	35	5.82	
CO[C@H](C)C(=O)N[C@@H](Cc1cccc(F)c1)[C@H](O)CN[C@H]1CC2(CCC2)Oc2c1cc(CC(C)(C)C)nc2-c1ccncc1 [compound 533]		163	29						pIC50 [1, 6]: 7.89; pIC50 ([3]; HEK293, HEK cells, read-out: HEK cell assay): 7.36; IC50 [5]: 1.4 µM
C#Cc1cc(C#C)cc(C[C@H](NC(=O)COC)[C@H](O)CN[C@H]2CC3(CCC3)Oc3ncc(CC(C)(C)C)cc32)c1 [compound 858]	0.005	88	90						IC50 [3, 7]: 0.147 µM; pIC50 [5, 8]: 5.96
CO[C@H](C)C(=O)N[C@@H](Cc1cc(F)cc(F)c1)[C@H](O)CN[C@H]1CC2(CCC2)Oc2c(-c3cncn3C)cc(CC(C)C)cc21 [compound 622]				7.59	161	8.15	32	5.18	
CO[C@H](C)C(=O)N[C@@H](Cc1ccccc1)[C@H](O)CN[C@H]1CC2(CCC2)Oc2c(-c3ccncc3)cc(CC(C)C)cc21 [compound 604]				7.74	215	7.89	89	5.57	
CC(=O)N[C@@H](Cc1cccc(-n2ccnc2)c1)[C@H](O)CN[C@H]1CC2(CCC2)Oc2ccc(CC(C)(C)C)cc21 [compound 659]				7.12	413	7.62	706	6.70	
C#Cc1cc(F)cc(C[C@H](NC(=O)[C@@H](C)OC)[C@H](O)CN[C@H]2CC3(CCC3)Oc3ncc(CC(C)(C)C)cc32)c1 [Example 834, (2R)-N-((1S,2R)-3-(((4′S)-6′-(2,2-dimethylpropyl)-3′,4′-dihydrospiro[cyclobutane-1,2′-pyrano[2,3-b]pyridin]-4′-yl)amino)-1-(3-ethynyl-5-fluorobenzyl)-2-hydroxypropyl)-2-methoxypropanamide]	0.005	98	37						IC50 [3, 11]: 0.011 µM; IC50 [5]: 2.5 µM
COCC(=O)N[C@@H](Cc1ccc(F)cc1)[C@H](O)CN[C@H]1CC2(CCC2)Oc2c(-c3ccncc3)cc(CC(C)C)cc21 [compound 605]				7.85	71	7.80	73	5.64	

From patent publication US8163909B2, “Substituted hydroxyethyl amine compounds as beta-secretase modulators and methods of use” (Amgen Inc., priority 2007, dated 2012)
